# Measurements taken from patent US11726079B2, “Lighting systems and methods of using lighting systems for in vitro potency assay for Photofrin” (Concordia Laboratories, Inc., priority 2012, dated 2023).
# Where “and” joins values, the source holds several entries; their conditions need not be identical. Identical values can stand only once. Marks after values point to notes of the source that are not given here.
# System: A549 human lung carcinoma cells
# Experiment: In vitro potency assay for Photofrin®: A549 cells, 4 h drug absorption, wash, 10 min irradiation at 400-650 nm, 24 h, XTT viability, 4PL EC50
# Assay type: cell-based
# Design: key to EC50-XTT / EC50 STD / EC50 Test: EC50 as Photofrin concentration in μg/mL (4PL inflection point)
# Conditions: for EC50 STD / EC50 Test: in µg/mL; for EC50 Test / EC50 Test, Mean: Test (35 μg/mL high test drug concentration)
# Description: Cell passaging of A549 cells is performed using fixed seeding densities to reduce assay variation resulting from cell culture conditions. […] Working in very low light conditions, Photofrin® is reconstituted in normal saline to 2.5 mg/mL and diluted further in culture medium at twice the desired final assay concentration, typically 140 μg/mL. A series of two-fold dilutions were then prepared from the 140 μg/mL solution and the diluted drug was added to the cells at 1:1 (v/v) according to the diagram shown in FIG. 11.
# […] The plate is then removed from the incubator, the drug is aspirated, the wells are washed with Dulbecco's phosphate buffered saline (DPBS) and fresh, pre-warmed medium is added to the wells. […] […] The wells covered with foil strips are important controls for the activity of Photofrin® in the absence of irradiation and the effect of light on the cells in the absence of drug.
# The optical absorbance of the wells in column 1 (high drug concentration, no cells) is evaluated for absorption at 450 nm to ensure that the drug is not interfering with the XTT assay. The percent viability of each of the wells in columns 2-9 and 11 is calculated relative to the mean value of column 10 (cell control, no drug, no light). For each dose response obtained, a four parameter logistic (4PL) nonlinear regression analysis is performed of the percent viability versus the log-Photofrin® concentration. The point of inflection of the regression curve (C value) is defined as the EC50 and used in the calculation of relative potency. Curve fitting and calculation of the EC50 is performed with Softmax v5.4.2 (Molecular Devices, Inc.) or Prism v.5.04 (GraphPad, Software Inc.) software. The mean percent viability of columns 9 and 11 is also calculated.
# • 1. Materials and Reagents • 1.1. A549 Human Lung Carcinoma (ATCC—Cat. No.: CCL-185) • 1.2. 25 cm^2 Flasks (Corning—Cat. No.: 431463, or equivalent) • 1.3. 75 cm^2 Flasks (Corning—Cat. No.: 431464, or equivalent) • 1.4. 50 mL tubes (Fisher Scientific—Cat. No. 17-512F, or equivalent) • 1.5. Hemacytometer • 1.6. RPMI-1640 (+) phenol red (Lonza—Cat. No.: 12-167F, or equivalent) • 1.7. HI-FBS (Gibco—Life Technologies—Cat No.: 10082-147, or equivalent) • 1.8. 200 mM L-Glutamine (Lonza—Cat. No.: 17-605E, or equivalent) • 1.9. 0.25% Trypsin-EDTA (Gibco—Cat. No.: 25200-056, or equivalent) • 2. Instruments • 2.1. Forma Scientific centrifuge with swinging bucket rotor (Model 5682, or equivalent) • 2.2. Water bath set at 37° C. • 2.3. […] Prepared Reagents • 3.1. RPMI-1640 Complete Media • 3.1.1. 500 mL bottle of RPMI-1640 basal media containing phenol red • 3.1.2. Add 50 mL HI-FBS • 3.1.3. Add 5.5 mL of 200 mM L-Glutamine • 4. Procedure • 4.1. Remove one vial of A549 lung carcinoma cells from liquid nitrogen storage and after ensuring that the vial is tightly closed, rapidly thaw vial by holding all but the top of the vial submerged in a 37° C. water bath until the vial contents begins to thaw but while ice still remains. • 4.2. Liberally spray the vial with 70% ethanol, wipe with tissue, and place into a laminar flow hood. • 4.3. Transfer the contents of the vial to a 50 mL conical tube containing 9 mL RPMI-1640 complete medium containing phenol red (Step 3.1) (hereafter referred to as complete medium in this method). • 4.4. Centrifuge the tube in a swing bucket rotor set at 1200 RPM (220 RCF) for five minutes at room temperature. • 4.5. Discard supernatant and gently flick the tube to resuspend the cells in the residual volume left in the tube. • 4.6. Add 5 mL complete medium, transfer the cell solution to a 25 cm^2 flask, and then place the flask into a 37° C. incubator with 5% CO2. • 4.7. Monitor the flask daily and when the cells reach approximately 80% confluence, remove the media, and wash the cells by adding 2 mL DPBS to the flask. Ensure that all cells are rinsed and discard the DPBS. • 4.8. Add 1 mL 0.25% trypsin-EDTA to prewash the cells, tip flask to coat all cells, and discard the trypsin. • 4.9. […]
substance,measurement,setting,value
porfimer sodium [Photofrin®],ratio of the standard to test sample EC50,"FIG. 12, standard preparation versus preparation containing half of the nominal activity",0.5
same,EC50 STD,"Standard sample (70 μg/mL high test drug concentration), A549 cells at passage P10",10.5
same,EC50 STD,"Standard sample (70 μg/mL high test drug concentration), A549 cells at passage P17",10.1
same,EC50 STD,"Standard sample (70 μg/mL high test drug concentration), Inter-operator Assay, AB-1",6.37
same,EC50 STD,"Standard sample (70 μg/mL high test drug concentration), Inter-operator Assay, AB-2",8.23
same,"EC50 STD, Mean","Standard sample (70 μg/mL high test drug concentration), Inter-operator Assay, mean of operator AB plates",7.3 µg/mL
same,EC50 STD,"Standard sample (70 μg/mL high test drug concentration), Photofrin® absorption time 3.5 hours",10.4
same,EC50 STD,"Standard sample (70 μg/mL high test drug concentration), absorption time 4.0 hours",10.2
same,EC50 STD,"Standard sample (70 μg/mL high test drug concentration), absorption time 4.5 hours",9.23
same,EC50 STD,"Standard sample (70 μg/mL high test drug concentration), irradiation time 8 minutes",12.0
same,EC50 STD,"Standard sample (70 μg/mL high test drug concentration), irradiation time 9 minutes",12.0
same,EC50 STD,"Standard sample (70 μg/mL high test drug concentration), irradiation time 10 minutes",11.1
same,EC50 STD,"Standard sample (70 μg/mL high test drug concentration), irradiation time 11 minutes",11.6
same,EC50 STD,"Standard sample (70 μg/mL high test drug concentration), irradiation time 12 minutes",10.8
same,EC50 STD,"Standard sample (70 μg/mL high test drug concentration), operator AB Pilot Assay-1",6.62
same,EC50 STD,"Standard sample (70 μg/mL high test drug concentration), operator AB Pilot Assay-2",6.76
same,EC50 STD,"Standard sample (70 μg/mL high test drug concentration), post-irradiation incubation time 22 hours",9.16
same,EC50 STD,"Standard sample (70 μg/mL high test drug concentration), post-irradiation incubation time 24 hours",10.2
same,EC50 STD,"Standard sample (70 μg/mL high test drug concentration), post-irradiation incubation time 26 hours",9.55
same,EC50 STD,"Standard sample (70 μg/mL high test drug concentration), post-irradiation temperature 35° C.",9.68
same,EC50 STD,"Standard sample (70 μg/mL high test drug concentration), post-irradiation temperature 37° C. (nominal, two experiments)",10.8 and 9.9
same,EC50 STD,"Standard sample (70 μg/mL high test drug concentration), post-irradiation temperature 39° C.",8.32
same,Standard Sample EC50,"Standard sample, 70 μg/mL high test concentration, Plate 1 (placement Standard, Test; left to right dilution; controls in columns 9-11)",11.1 µg/mL
same,Standard Sample EC50,"Standard sample, 70 μg/mL high test concentration, Plate 2 (placement Test, Standard; left to right dilution; controls in columns 9-11)",10.7 µg/mL
same,Standard Sample EC50,"Standard sample, 70 μg/mL high test concentration, Plate 3 (right to left dilution; controls in columns 9-11)",11.2 µg/mL
same,Standard Sample EC50,"Standard sample, 70 μg/mL high test concentration, Plate 4 (placement Standard, Test; left to right dilution; controls in columns 9-11)",11 µg/mL
same,Standard Sample EC50,"Standard sample, 70 μg/mL high test concentration, Plate 5 (left to right dilution; controls in columns 2-4)",10.8 µg/mL
same,"Standard Sample EC50, Mean","Standard sample, 70 μg/mL high test concentration, mean across Plates 1-5 of positional analysis",11 µg/mL
same,EC50 Test,"A549 cells at passage P10, wide confidence interval due to poor curve fitting",18.9**
same,EC50 Test,A549 cells at passage P17,19.2
same,EC50 Test,"Inter-operator Assay, AB-1",13.7
same,EC50 Test,"Inter-operator Assay, AB-2",14.6
same,"EC50 Test, Mean","Inter-operator Assay, mean of operator AB plates",14.2 µg/mL
same,"EC50 Test, Mean","Inter-operator Assay, mean of operator KP plates",20 µg/mL
same,EC50 Test,"Inter-operator Assay, operator KP, both plates KP-1",20.1 and 19.8
same,EC50 Test,absorption time 3.5 hours,19.5
same,EC50 Test,absorption time 4.0 hours,20.1
same,EC50 Test,absorption time 4.5 hours,16.1
same,EC50 Test,irradiation time 8 minutes,24.5
same,EC50 Test,irradiation time 9 minutes,25.2
same,EC50 Test,irradiation time 10 minutes,22.8
same,EC50 Test,irradiation time 11 minutes,20.9
same,EC50 Test,irradiation time 12 minutes,21.0
same,EC50 Test,operator AB Pilot Assay-1,16.1
same,EC50 Test,operator AB Pilot Assay-2,12.6
same,EC50 Test,post-irradiation incubation time 22 hours,16.7
same,EC50 Test,post-irradiation incubation time 24 hours,18.9
same,EC50 Test,post-irradiation incubation time 26 hours,16.6
same,EC50 Test,post-irradiation temperature 35° C.,21.6
same,EC50 Test,"post-irradiation temperature 37° C. (nominal, two experiments)",19.9 and 20.0
same,EC50 Test,post-irradiation temperature 39° C.,16.1
same,EC50 Test,seeding density 0.8 × 10^4 cells/well,21.1
same,EC50 Test,seeding density 1.2 × 10^4 cells/well,27.9
same,EC50 Test,seeding density 1.9 × 10^4 cells/well,21.3
